From patent publication US9802897B2, “Amidopyridinol derivative or pharmaceutically acceptable salt thereof and pharmaceutical composition comprising same as active component” (Research Cooperation Foundation of Yeungnam University, priority 2013, dated 2017) come the findings set out here.

Experiment [1] relates to VEGF-induced angiogenesis in chicken chorioallantoic membrane (CAM). The experiment in a line: CAM analysis of VEGF-induced angiogenesis. It is filed as in vivo. Conditions: for inhibition in vivo at 0.01 nmol/CAM: Gallus gallus, 72 h, VEGF (20 ng/CAM) + Compound (0.01 nmol/CAM), number of blood vessels after 3 days, read-out: Inhibitory rates (%). On the procedure: To confirm inhibitory effects on angiogenesis through in vivo experiments, the chorioallantoic membrane (CAM) analysis was carried out (refer to Nguyen M et al., Microvascular Res., 47, pp 31-40, 1994). A fertilized egg of a chicken was cultured in conditions maintaining a temperature of 37° C. and relative humidity of 55%. On the 10th day of the culturing, a first small hole was made on an air sac part using a hypodermic needle (Green Cross Medical Corp., Korea), and then, a second hole was made on a flat part of the fertilized egg to make a window thereon. Air was removed through the first hole, i.e., the air sac part, and accordingly, the CAM was separated from the shell of the fertilized egg. Then, a grinding wheel (Multipro 395JA, Dremel, Mexico) was used to cut the air sac part, thereby making a window thereon. Next, the whatman filter disk #1 (Whatman Company, USA) was treated with 3 mg/mL of cortisone acetate, dried, and then, wet by VEGF at a concentration of 20 ng/CAM. The filter disk was placed on blood vessels through the window, and then, compounds prepared according to Examples above were each dissolved in DMSO, diluted with PBS, and then, treated for each concentration. After 3 days of treating the compounds, the CAM part on which the filter disk was placed was isolated, and then, washed with PBS. The Stemi SV6 stereomicroscope (Carl Zeiss, Germany) and the Image-Pro Plus software (Media Cybernetics; Silver Spring, Md., USA) were used to capture images of the CAM part, so as to measure the number of the blood vessels and to analyze data obtained therefrom.

The subject of a further experiment is HT-29 cells / U937 cells. The experiment in a line: TNF-α-induced adhesion of HT-29 intestinal epithelial cells and U937 mononuclear cells. It is filed as cell-based, human. Conditions: Homo sapiens; 1 μM, pre-treated 1 hour; TNF-α 10 ng/ml; read-out: Inhibitory rates (%). On the procedure: HT-29 cells were cultured in a 24-well plate at a concentration of […] cells/cm^2, and meanwhile, amidopyridinol compounds 8a to 8z were pre-treated for 1 hour at each concentration in a serum-free medium supplemented only with 1% PS. Next, 10 ng/ml of TNF-α was treated therewith to allow a reaction at a temperature of 37° C. for 3 hours. After the completion of the reaction, the medium of the HT-29 cells was removed, and then, the HT-29 cells were washed with PBS once. Afterwards, U937 cells, which were treated and reacted with 10 μg/mL of BCECF-AM at a temperature of 37° C. for 30 minutes, were allowed to react with the HT-29 cells at temperature of 37° C. for 1 hour. Then, to remove U937 cells that were not adhered to the HT-29 cells, the reacted cells were washed with PBS twice. In terms of cell dissolution, 0.1% Triton X-100 in 0.1M Tris was allowed to react with the cells for 30 minutes at room temperature, and then, the cells were subjected to quantify by measuring fluorescence thereof using the Fluostar optima microplate reader (BMG Labtechnologies, Germany).

The next experiment deals with A549 lung cancer cells. The experiment in a line: CAM inoculated with A549 lung cancer cells: angiogenesis and tumor growth. The experiment is classed as in vivo, chicken. Conditions: for Inhibition rates of angiogenesis (%) / Inhibition rates of tumor growth (%): A549 on CAM, 5 days. On the procedure: To confirm inhibitory effects on angiogenesis through in vivo experiments, the CAM analysis was carried out (refer to Nguyen M et al., Microvascular Res., 47, pp 31-40, 1994). A fertilized egg of a chicken was cultured in conditions maintaining a temperature of 37° C. and relative humidity of 55%. On the 9th day of the culturing, a first small hole was made on an air sac part using a hypodermic needle (Green Cross Medical Corp., Korea), and then, a second hole was made on a flat part of the fertilized egg to make a window thereon. Air was removed through the first hole, i.e., the air sac part, and accordingly, the CAM was separated from the shell of the fertilized egg. Then, a grinding wheel (Multipro 395JA, Dremel, Mexico) was used to cut the air sac part, thereby making a window thereon. Meanwhile, A549 lung cancer cells were mixed with matrigel at a ratio of 1:1, and then, the mixture was treated with Compounds 8a, 8b, and 8g, respectively, followed by being inoculated at a density of 1.5×10^6 cells/CAM.
After 5 days of the inoculation, the CAM part on which tumors were formed was isolated, and then, washed with PBS. The Stemi SV6 stereomicroscope (Carl Zeiss, Germany) and the Image-Pro Plus software (Media Cybernetics; Silver Spring, Md., USA) were used to capture images of the CAM part, so as to measure the number of the blood vessels and to analyze data obtained therefrom.

The subject of another experiment is cathepsin S. The experiment in a line: RT-PCR of cathepsin S gene expression in MDA-MB-231 cells. The experiment is classed as cell-based. On the procedure:
Each compound of the present invention was treated with breast cancer cells (1×10^5 cell/cm^2), e.g., MDA-MB-231, and then, cultured at a temperature of 37° C. for 24 hours in a cell incubator. Afterwards, a trizole reagent was used to extract the entire mRNA therefrom. 24 hours later, the culture medium was removed therefrom, 1 mL of the triazole reagent was added to each well, and then, the cell elusion was transferred to a 1.5 mL tube. After 200 μl of chloroform was added to each sample, the samples were subjected to centrifugation at a temperature of 4° C., at 12,000 g, for 15 minutes. 500 μl of the supernatant obtained therefrom was transferred to a new tube. After 500 μl of isopropylalcohol was added to each sample, the samples were subjected to centrifugation at a temperature of 4° C., at 12,000 g, for 15 minutes. The supernatant obtained therefrom was removed from each sample, and then, the samples were washed with 75% ethanol to clean mRNA while the precipitants were dried. Then, mRNA extracted therefrom was dissolved in RNase-free water, followed by being heated at a temperature of 55° C. for 10 minutes.
After the RNA quantification, the GoScript™ reverse transcription system (Promega Corporation, Madison, Wis., USA) was used to synthesize cDNA. Here, PCR was performed by using TaKaRa Taq™ (Takara bio Inc., Shiga, Japan), wherein a primer set of cathepsin S consists of a forward primer having SEQ ID NO: 1 (forward sequence: 5′-GCAGTGGCACAGTTGCATAA-3′) and a reverse primer having SEQ ID NO: 2 (reverse sequence: 5′-AGCACCACAAGAACCCATGT-3′). After the PCR product was subjected to agarose gel electrophoresis, the PCR product was stained with ethidium bromide (0.5 μg/ml), thereby obtaining images thereof by using the gel imaging system (UVP, Cambridge, UK). Here, the PCR product was quantified based on glyceraldehyde 3-phosphate dehydrogenase (GAPDH). A GAPDH primer used herein consists of a forward primer having SEQ ID NO: 3 (forward sequence: 5′-GGTGAAGGTCGGAGTCAACG-3′) and a reverse primer having SEQ ID NO: 4 (reverse sequence: 5′-CAAAGTTGTCATGGATGACC-3′).
Furthermore, to screen other amidopyridinol derivatives that inhibit metastasis of breast cancer cells, inhibitory effects on expression of cathepsin S genes were reviewed by treating 1 μM of each compound, in the same manner as in Experimental Example 9.

Another experiment relates to MDA-MB-231 cells. The experiment in a line: Transwell invasion assay of MDA-MB-231 breast cancer cells. Conditions: MDA-MB-231. The experiment is classed as cell-based. On the procedure:
The invasion assay was performed by using the transwell insert (BD FALCON, Bedford, USA) equipped with a 8 μm pore-sized filter. An upper part of the transwell insert filter was coated with 20 μl of matrigel (1 mg/ml) while a bottom part of the same was coated with 30 μl of type I collagen (0.5 mg/ml). The MDA-MB-231 cells (5×10^5 cells/100 μl) were added to the insert chamber, and then, each inhibitor was also added thereto. To induce invasion of the cells, a medium supplemented with 5% FBS was added to each well of the bottom chamber to allow a reaction at a temperature of 37° C. in a cell incubator. 18 hours later, the cells remained after removing the solution in the insert chamber were removed by using a cotton swab, whereas cells at the bottom of the membrane were fixed with methanol and stained with hematoxylin and eosin. The cells present at the membrane were observed through a microscope, and the number of the cells was counted in the selected 5 fields at the resolution of 200×.
According to the same manner as in Experimental Example 7, inhibitory effects of the amidopyridinol derivatives synthesized in Examples above on invasion of breast cancer cells, e.g., MDA-MB-231, were reviewed. Here, to compare with, inhibitory effects of aminopyridinol derivatives, e.g., 6-amino-2,4,5-trimethylpyridine-3-ol (BJ-1101) and 6-diphenylamino-2,4,5-trimethylpyridine-3-ol (BJ-1201), on invasion of breast cancer cells, e.g., MDA-MB-231, were reviewed.

Structures are written as SMILES. “And” between values parts separate entries of the source, which are not always exact repeats. Equal entries are not always repeated. Where two headings read alike, the source gives them in different places.

Regarding `Cc1nc(NC(=O)C2CCCC2)c(C)c(C)c1O` [Compound 8g, N-(5-hydroxy-3,4,6-trimethylpyridine-2-yl)cyclopentane carboxamide], the inhibition in vivo at 0.01 nmol/CAM in experiment [1] was 81.8 ± 8.4%. Besides, the “ID50 against inhibition of angiogenesis” value in experiment [1] (VEGF-induced CAM angiogenesis) was 0.9 pg/CAM and 3.6 fmol/CAM. For the same compound, the inhibition at 1 µM in the experiment on HT-29 cells / U937 cells was 42.8%; in the experiment on cathepsin S (Homo sapiens, MDA-MB-231, 24 h, screening, 1 μM of each compound, MDA-MB-231, RT-PCR, read-out: Inhibition rate of expression of cathepsin S (%)), at least 50%. For the same compound, the “Inhibition rates of angiogenesis (%)” value in the experiment on A549 lung cancer cells (0.001 pmol/CAM) is listed as 30.9 ± 8.5 %; in the experiment on A549 lung cancer cells (0.01 pmol/CAM), 48.4 ± 4.1 %; in the experiment with A549 lung cancer cells (0.1 pmol/CAM), 54.4 ± 6.7 %; in the experiment on A549 lung cancer cells (1.0 pmol/CAM), 58.1 ± 6.8 %. In addition, the “Inhibition rates of tumor growth (%)” value in the experiment with A549 lung cancer cells (0.001 pmol/CAM) is 13.2 ± 3.5%; in the experiment on A549 lung cancer cells (0.01 pmol/CAM), 24.0 ± 1.6 %; in the experiment on A549 lung cancer cells (0.1 pmol/CAM), 45.1 ± 3.1 %; in the experiment on A549 lung cancer cells (1.0 pmol/CAM) it was 62.7 ± 2.3 %. Also, the “inhibitory effects on angiogenesis and tumor growth (in words)” value in the experiment on A549 lung cancer cells (at each density) is on record as “inhibited angiogenesis upon tumorigenesis, as well as tumor growth”.
Turning to `Cc1nc(NC(=O)c2cccs2)c(C)c(C)c1O` [Compound 8q, N-(5-hydroxy-3,4,6-trimethylpyridine-2-yl)thiophene-2-carboxamide], the inhibition in vivo at 0.01 nmol/CAM in experiment [1] is 74.8 ± 13.2%. The inhibition at 1 µM was determined as 68.4% in the experiment on HT-29 cells / U937 cells; 65.8 ± 5.03% in the experiment with MDA-MB-231 cells (Homo sapiens, 1 μM, read-out: Inhibition rates of invasion of cancer cells (%)); 57 ± 1.55% with cathepsin S (Homo sapiens, MDA-MB-231, 24 h, 1 μM, MDA-MB-231, 24 hours, RT-PCR, read-out: Inhibition rate of expression of cathepsin S (%)). Further, the inhibition at 0.01 µM with MDA-MB-231 cells (Homo sapiens, 0.01 μM, read-out: Inhibition rates of invasion of cancer cells (%)) was 47.6 ± 18.1%; in the experiment with cathepsin S (Homo sapiens, MDA-MB-231, 24 h, 0.01 μM, MDA-MB-231, 24 hours, RT-PCR, read-out: Inhibition rate of expression of cathepsin S (%)), 42 ± 1.21%. Also, the inhibition at 0.1 µM in the experiment on MDA-MB-231 cells (Homo sapiens, 0.1 μM, read-out: Inhibition rates of invasion of cancer cells (%)) is 59 ± 10.4%; in the experiment with cathepsin S (Homo sapiens, MDA-MB-231, 24 h, 0.1 μM, MDA-MB-231, 24 hours, RT-PCR, read-out: Inhibition rate of expression of cathepsin S (%)), 52 ± 1.68%. Also, in the experiment with MDA-MB-231 cells (Homo sapiens, 10 μM, read-out: Inhibition rates of invasion of cancer cells (%)), the inhibition at 10 µM is 67.8 ± 4.25%. For the same compound, the “inhibitory effects on invasion of breast cancer cells (in words)” value in the experiment on MDA-MB-231 cells was “showed inhibitory effects on invasion of breast cancer cells”. Besides, the “effects for reducing expression of cathepsin S genes (in words)” value in the experiment with cathepsin S (MDA-MB-231) is listed as “the most effects for reducing expression of cathepsin S genes”.
